Laboratory results as given in patent US20170066759A1, “AROMATIC 5-MEMBERED HETEROCYCLIC DERIVATIVE HAVING TRPV4-INHIBITING ACTIVITY” (Shionogi & Co., Ltd., priority 2012, published 2017).

Target: T1, human TRPV4 (hTRPV4/CHO cells) (Homo sapiens, UniProt Q9HBA0)
T1 construct: expressed in transfected cells; host or cells: CHO-K1
Experiment: Test Example 1: TRPV4 inhibitory activity (IC50 value), 4α-PDD stimulation, Fluo4 calcium fluorescence (FLIPR TETRA)
Assay type: cell-based
Details: Test Example 1, 4α-PDD stimulation, read-out: Test 1 IC50

T1 sequence (Q9HBA0 whole entry): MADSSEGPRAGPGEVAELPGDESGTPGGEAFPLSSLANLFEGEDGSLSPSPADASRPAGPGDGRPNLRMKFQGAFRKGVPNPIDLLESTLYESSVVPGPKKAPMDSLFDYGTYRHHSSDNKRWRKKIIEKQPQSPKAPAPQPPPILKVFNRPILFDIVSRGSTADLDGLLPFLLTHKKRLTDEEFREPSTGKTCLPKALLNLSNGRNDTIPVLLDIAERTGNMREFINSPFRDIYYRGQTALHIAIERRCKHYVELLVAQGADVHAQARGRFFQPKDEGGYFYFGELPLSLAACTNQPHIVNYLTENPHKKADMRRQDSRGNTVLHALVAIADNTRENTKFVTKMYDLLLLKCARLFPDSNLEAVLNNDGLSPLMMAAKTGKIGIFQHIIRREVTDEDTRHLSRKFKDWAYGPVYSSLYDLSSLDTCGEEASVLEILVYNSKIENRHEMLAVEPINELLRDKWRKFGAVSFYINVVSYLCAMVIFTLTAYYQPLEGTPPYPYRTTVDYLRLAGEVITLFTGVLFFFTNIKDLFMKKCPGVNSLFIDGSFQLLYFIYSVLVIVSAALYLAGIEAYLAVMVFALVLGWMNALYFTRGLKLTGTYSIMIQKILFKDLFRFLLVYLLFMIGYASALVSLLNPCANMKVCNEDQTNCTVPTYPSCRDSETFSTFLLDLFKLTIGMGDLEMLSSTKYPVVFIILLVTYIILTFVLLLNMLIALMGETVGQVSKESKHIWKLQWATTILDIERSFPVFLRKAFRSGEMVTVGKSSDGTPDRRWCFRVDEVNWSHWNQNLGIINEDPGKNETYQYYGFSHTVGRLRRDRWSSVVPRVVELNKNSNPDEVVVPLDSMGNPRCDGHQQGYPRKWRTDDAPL

SMILES: Cc1ncsc1-c1csc(NC(=O)Cc2c(F)cccc2F)n1 [Compound I-540]
- IC50: 100 to 1000 nM

SMILES: Cc1nc(C)c(-c2csc(NC(=O)Cc3ccccc3[N+](=O)[O-])n2)s1 [Compound I-541]
- IC50: < 100 nM

SMILES: Cc1nc(C(F)F)sc1-c1csc(NC(=O)Cc2ccc(N(C)C)cc2)n1 [Compound I-542]
- IC50: 100 to 1000 nM

SMILES: Cc1nc(C(F)F)sc1-c1csc(NC(=O)C2CCC(C(F)(F)F)CC2)n1 (stereo not drawn) [Compound I-543]
- IC50: 100 to 1000 nM

SMILES: Cc1nc(C)c(-c2nsc(NC(=O)Cc3ccc(C(O)C(F)(F)F)cc3)n2)s1 (stereo not drawn) [Compound I-544]
- IC50: 1000 to 8000 nM

SMILES: C=C(C)c1nc(C)sc1-c1csc(NC(=O)Cc2c(F)cccc2F)n1 [Compound I-545]
- IC50: 100 to 1000 nM

SMILES: O=C(Nc1nc(-c2sc(CO)nc2CO)cs1)C1CC(c2ccccc2)C1 (stereo not drawn) [Compound I-546]
- IC50: 100 to 1000 nM

SMILES: Cc1nc(CO)sc1-c1csc(NC(=O)C2CC(c3ccccc3)C2)n1 (stereo not drawn) [Compound I-547]
- IC50: < 100 nM

SMILES: O=C(Nc1nc(-c2sc(CO)nc2CO)cs1)[C@H]1C[C@H](OCc2ccccc2)C1 [Compound I-548]
- IC50: 100 to 1000 nM

SMILES: O=C(Nc1nc(-c2sc(CO)nc2CO)cs1)[C@H]1C[C@@H](OCc2ccccc2)C1 [Compound I-549]
- IC50: 1000 to 8000 nM

SMILES: O=C(Nc1nc(-c2sc(CO)nc2CO)cs1)[C@H]1C[C@@H](OCc2ccc(C(F)(F)F)cc2)C1 [Compound I-550]
- IC50: 100 to 1000 nM

SMILES: NC(=O)c1nc(CO)c(-c2csc(NC(=O)[C@H]3C[C@@H](OCc4ccc(C(F)(F)F)cc4)C3)n2)s1 [Compound I-551]
- IC50: 100 to 1000 nM

SMILES: Cc1nc(CO)sc1-c1csc(NC(=O)[C@H]2C[C@H](C(F)F)C2)n1 [Compound I-552]
- IC50: 100 to 1000 nM

SMILES: Cc1nc(C)c(-c2csc(C(=O)NCc3cccc(F)c3)n2)s1 [II-2]
- IC50: 1000 to 8000 nM

SMILES: Cc1nc(CO)c(-c2csc(NCCc3c(F)cccc3F)n2)s1 [II-3]
- IC50: 100 to 1000 nM

SMILES: Cc1nc(C)c(-c2csc(CCOc3ccc(Br)cc3)n2)s1 [II-4]
- IC50: 1000 to 8000 nM

SMILES: Cc1ccc(-c2csc(NC(=O)C3CC(F)C3)n2)s1 (stereo not drawn) [II-5]
- IC50: 100 to 1000 nM

SMILES: O=C(Cc1ccc(S(=O)(=O)CC(F)(F)F)cc1)Nc1nc(-c2cccs2)cs1 [II-6]
- IC50: 100 to 1000 nM

SMILES: O=C(Nc1nc(-c2cccs2)cs1)C1CC(F)C1 (stereo not drawn) [II-7]
- IC50: 1000 to 8000 nM

SMILES: Cc1ccc(-c2csc(NC(=O)Cc3ccc(S(=O)(=O)CC(F)(F)F)cc3)n2)s1 [II-8]
- IC50: 100 to 1000 nM

SMILES: Cc1nc(C)c(-c2csc(NC(=N)Cc3ccc(Cl)cc3)n2)s1 [II-31]
- IC50: 1000 to 8000 nM

SMILES: Cc1nc(CO)sc1-c1csc(Nc2ccccn2)n1 [II-32]
- IC50: < 100 nM

SMILES: Cc1nc(C)c(-c2csc(NCC(F)(F)c3ccccc3)n2)s1 [II-33]
- IC50: 1000 to 8000 nM

SMILES: Cc1nc(C)c(-c2csc(Nc3cnccn3)n2)s1 [II-34]
- IC50: < 100 nM

SMILES: Cc1nc(C)c(-c2csc(NCCc3ccccc3)n2)s1 [II-35]
- IC50: < 100 nM

SMILES: Cc1nc(C)c(-c2csc(NCCc3ccc(Cl)cc3)n2)s1 [II-36]
- IC50: < 100 nM

SMILES: Cc1nc(C)c(-c2csc(NC3CCCCC3)n2)s1 [II-37]
- IC50: < 100 nM

SMILES: Cc1nc(C)c(-c2csc(NC3CCCC3)n2)s1 [II-38]
- IC50: < 100 nM

SMILES: Cc1nc(C)c(-c2csc(Nc3cccnc3)n2)s1 [II-40]
- IC50: 100 to 1000 nM

SMILES: Cc1nc(C)c(-c2csc(Nc3ccncc3)n2)s1 [II-41]
- IC50: 1000 to 8000 nM

SMILES: Cc1nc(C)c(-c2csc(NCCOc3ccccc3)n2)s1 [II-47]
- IC50: 100 to 1000 nM

SMILES: Cc1nc(C)c(-c2csc(NCC3Cc4ccccc4C3)n2)s1 [II-49]
- IC50: < 100 nM

SMILES: Cc1nc(C)c(-c2csc(CCOCc3ccc(Br)cc3)n2)s1 [II-51]
- IC50: 1000 to 8000 nM
